{"source": "patent US9119821B2", "about": "“Use of methionine sulfoximine to treat acute liver failure and other diseases caused by an inflammatory cytokine response” (priority 2010, dated 2015)", "key": {"[1]": {"system": "peritoneal macrophages", "conditions": "9 mM MSO, over the time course of the macrophage experiments", "method": "Macrophages coordinate the early phases of LPS-induced inflammatory response, through the synthesis of TNF-α and other cytokines. In vitro experiments were conducted to directly test if MSO inhibits TNF-α production on LPS-stimulated macrophages obtained from mouse peritoneum. Macrophages were triggered with LPS with or without MSO, wherein the MSO was added either three hours before, one hour after, or at the same time as LPS. Four hours after LPS addition, TNF-α in the culture supernatant was quantitated by ELISA, as described in Methods."}, "[2]": {"system": "STAT1", "conditions": "liver homogenates, five hours after LPS/D-GalN", "method": "(§1) Immunoblots of cleaved caspase-3 and phospho-STAT proteins: Liver homogenates were prepared from male mice five hours after IP administration of LPS/D-GalN. […] Glyceraldehyde-3-phosphate dehydrogenase (GAPDH—Chemicon, Milano, Italy) was used as a loading control)."}, "[3]": {"system": "caspase-3", "conditions": "mouse, in vivo", "method": "as §1"}, "[4]": {"system": "STAT3", "conditions": "liver homogenates; both LPS/D-GalN treated and untreated mice", "method": "as §1"}, "[5]": {"system": "40 different mouse cytokines", "method": "(§2) Tissue and plasma were collected from male mice, which were divided into two groups. One group was injected with saline three hours prior to LPS/D-GalN injections. The second group was given MSO three hours prior to being injected with LPS/D-GalN. Control mice (t=0) were treated with MSO or saline for 3 hours and then euthanized (not exposed to LPS/D-GalN). After LPS/D-GalN injection at time zero, tissue and plasma samples were collected at one-hour time intervals from 1 to 5 hours.\nFor experiments analyzing plasma cytokines, the male mice from the groups described above were anesthetized using Avertin (solution of 15.5 mis of tert-amyl alcohol—Sigma #240486 and 25 g of 2-2-2 tribromoethanol—Sigma #T48402) and blood was collected by cardiac puncture. Plasma was obtained by transferring blood to plasma separator tubes containing lithium heparin (BD Microtainer tubes). Plasma samples were immediately frozen on dry ice and stored at −80° C.\nMouse cytokine array kits (Proteome Profiler Arrays—cat #ARY006) were obtained from R&D Systems and used according to the manufacturer's guidelines. Each array, which consisted of a nitrocellulose membrane spotted with 40 different mouse cytokines, was tested with two hundred microliters of plasma from one animal. Each condition was duplicated—two mice for each group. Control blots were from plasma collected from two untreated mice (not injected with LPS/D-GalN and/or MSO). For untreated and MSO-treated groups, plasma was collected at either 1 hour or 3 hours after LPS/D-GalN administration. The blots were developed using the Immun-Star WesternC Kit (BIO-RAD cat #170-5070) on a BIO-RAD imager. The corresponding Quantity One software of the BIO-RAD imager was used to quantify the signal obtained on the blots."}, "[6]": {"system": "CD1 mice treated with LPS/D-GalN", "assay": "Survival of mice with LPS/D-GalN induced acute liver failure", "format": "in vivo, mouse", "conditions": "50 mg/kg IP three hours prior to LPS/D-GalN", "text": "Six to eight week old CD1 mice are obtained from Charles River. Animals were housed in Wayne State University or University of Padova, Vallisneri Interdepartmental Complex animal quarters until the time of the experiment. Food was withdrawn the night before the day of the experiment. All experiments were approved by the Animal Investigation Committee of Wayne State University or by the Authority of the University of Padova and authorized by the Italian Ministry of Health.\nAnimals were divided into two groups. Group one animals consisted of both male and female mice injected with LPS and D-GalN to induce hepatic failure. Survival was monitored post LPS/D-GalN administration and the time of injection was considered to be zero hour (t=0). Group two animals consisted of mice injected with MSO three hours prior to LPS and D-GalN administration. […] […] For analysis of the effect of MSO treatment on the cell death pathway activated by the Fas ligand, mice were pre-treated with MSO as described above, and at time zero were injected with Jo2 antibody ([…]).\nAnimals were monitored continuously post LPS/D-GalN or Jo2 administration. […] The time of death was recorded as hours after LPS/D-GalN injection. Fisher's exact test was used to determine two-tailed p values for the statistical between the treated and untreated groups."}, "[7]": {"system": "IL-6", "conditions": "3 hours after LPS/D-GalN; without MSO peak 401±14 at two hours", "text": "(§3) FIG. 6A, FIG. 6B, and FIG. 6C illustrate ELISA quantitation cytokine levels in plasma from LPS/D-GalN treated mice. The time zero values show the levels of each cytokine in negative control mice, not treated with LPS/D-GalN but injected with either saline (n=7) or MSO (n=7) three hours prior to be killed. […] For each cytokine, open circles represent cytokine levels in plasma isolated from mice pretreated with saline, and open diamonds represent cytokine levels in plasma isolated from mice pretreated with MSO prior to LPS/D-GalN treatment. FIG. 6A illustrates TNF-α levels. FIG. 6B illustrates IFN-γ levels. FIG. 6C illustrates IL-6 levels; and\nas §2\n(§4) Plasma was obtained by transferring blood to plasma separator tubes containing lithium heparin (BD Microtainer tubes). Plasma samples were immediately frozen on dry ice and stored at −80° C.\n(§5) TNF-α, IFN-γ, and IL-6 ELISA kits were obtained from eBioscience, and experiments were performed using the manufacturer's guidelines for 96-well plate experiments. One hundred microliters of plasma was used per well."}, "[8]": {"system": "TNF-α", "text": "as §3, §2, §4, §5"}, "[9]": {"system": "IFN-γ", "text": "as §3, §2, §4, §5"}, "[10]": {"system": "MLP 29 cells", "assay": "Flow cytometry of apoptosis induced by TNF-α plus actinomycin D", "format": "cell-based, mouse", "experimental": "Output of multiparametric FACS analyses. Mouse liver progenitor cells, MLP 29, are incubated for one hour with either no addition (first lane, FIG. 3C(a)), 9 mM MSO (second lane, FIG. 3C(b)), or 9 mM BSO (third lane, FIG. 3C(c)), then exposed for 10 hours to either no addition—(BAS, first column), TNF-α plus actinomycin D (second column), or actinomycin D alone (third column). Viable cells (V) are delimited by the quadrant. Apoptotic cells display mitochondrial depolarization (reduced TMRM staining) and/or expose phosphatidylserine on their surface (increased Annexin V-FITC staining). Propidium iodide-positive, i.e. dead cells (PI), are evaluated on a PI vs TMRM diagram (not shown); these cells are excluded from the reported plots, but the percentage of propidium iodide positive (i.e. dead) cells is shown in each box (PI), as is the percentage of viable cells (V);\nSamples were analyzed on a FACSCalibur flow cytometer (Becton Dickinson, San Diego, Calif.). Data acquisition was performed using CellQuest software and data analysis with WinMD1 software. Each experiment was repeated at least four times."}, "[11]": {"conditions": "one hour after LPS/D-GalN, versus LPS/D-GalN alone"}, "[12]": {"conditions": "three hours after LPS/D-GalN, same reduction in LPS/D-GalN animals without MSO"}}, "note": "Where two headings read alike, the source gives them in different places.", "data": [{"molecule": "CS(=N)(=O)CC[C@H](N)C(=O)O", "note": "(stereo partly shown) [MSO, methionine sulfoximine]", "values": [{"measurement": "effect on cell viability (trypan blue)", "setting": "[1]", "value": "no effect"}, {"measurement": "increase in STAT1 activation by LPS/D-GalN", "setting": "[2]", "value": "eliminated"}, {"measurement": "caspase-3 activation", "setting": "[3]", "value": "completely prevented"}, {"measurement": "phosphorylated STAT3", "setting": "[4]", "value": "decreased"}, {"measurement": "reduction of IL-6 in plasma", "setting": "[5]; [11]", "value": "> 50", "unit": "%"}, {"measurement": "reduction of TNF-α in plasma", "setting": "[5]; [11]", "value": "> 50", "unit": "%"}, {"measurement": "I-TAC in plasma", "setting": "[5]; three hours after LPS/D-GalN", "value": "not detected"}, {"measurement": "JE in plasma", "setting": "[5]; three hours after LPS/D-GalN", "value": "either reduced or not detected"}, {"measurement": "KC values", "setting": "[5]; three hours after LPS/D-GalN", "value": "same as in LPS/D-GalN animals"}, {"measurement": "M-CSF values", "setting": "[5]; three hours after LPS/D-GalN", "value": "same for all three groups"}, {"measurement": "MCP-5 in plasma", "setting": "[5]; three hours after LPS/D-GalN", "value": "increased"}, {"measurement": "MIG in plasma", "setting": "[5]; three hours after LPS/D-GalN", "value": "not detected"}, {"measurement": "MIP-1a in plasma", "setting": "[5]; three hours after LPS/D-GalN", "value": "either reduced or not detected"}, {"measurement": "MIP-1b in plasma", "setting": "[5]; three hours after LPS/D-GalN", "value": "either reduced or not detected"}, {"measurement": "MIP-2 in plasma", "setting": "[5]; three hours after LPS/D-GalN", "value": "increased"}, {"measurement": "RANTES in plasma", "setting": "[5]; three hours after LPS/D-GalN", "value": "either reduced or not detected"}, {"measurement": "TIMP-1 values", "setting": "[5]; three hours after LPS/D-GalN", "value": "reduced to approximately control values"}, {"measurement": "TNF-α induction by LPS/D-GalN", "setting": "[5]; three hours after LPS/D-GalN", "value": "abrogated"}, {"measurement": "induction of IFN-γ by LPS/D-GalN", "setting": "[5]; three hours after LPS/D-GalN", "value": "abolished"}, {"measurement": "induction of IL-1ra by LPS/D-GalN", "setting": "[5]; three hours after LPS/D-GalN", "value": "abolished"}, {"measurement": "induction of IL-6 by LPS/D-GalN", "setting": "[5]; three hours after LPS/D-GalN", "value": "abolished"}, {"measurement": "induction of IL-16 by LPS/D-GalN", "setting": "[5]; three hours after LPS/D-GalN", "value": "abolished"}, {"measurement": "induction of IL-23 by LPS/D-GalN", "setting": "[5]; three hours after LPS/D-GalN", "value": "abolished"}, {"measurement": "reduction of IL-1a level", "setting": "[5]; three hours after LPS/D-GalN", "value": "more than 50%"}, {"measurement": "reduction of IP-10", "setting": "[5]; three hours after LPS/D-GalN", "value": "more than 50%"}, {"measurement": "number of elevated cytokines reduced by pretreatment", "setting": "[5]; three hours after LPS/D-GalN, 22 of the 40 cytokines elevated", "value": 20}, {"measurement": "reduction in C5a", "setting": "[5]; [12]", "value": "10-20%"}, {"measurement": "reduction in sICAM", "setting": "[5]; [12]", "value": "10-20%"}, {"measurement": "female survival", "setting": "[6]; female CD1 mice, n=14, without pretreatment 27%, p<0.005", "value": 81, "unit": "%"}, {"measurement": "male survival", "setting": "[6]; male CD1 mice, n=21, without pretreatment 19%, p<0.002", "value": 71, "unit": "%"}, {"measurement": "plasma IL-6 level, peak, mean ± SEM", "setting": "[7]", "value": "325 ± 27", "unit": "pg/mL"}, {"measurement": "plasma TNF-α level throughout the time course", "setting": "[8]; 1 to 5 hours after LPS/D-GalN", "value": "< 200", "unit": "pg/mL"}, {"measurement": "plasma TNF-α level, peak, mean ± SEM", "setting": "[8]; 1 hour after LPS/D-GalN, saline pretreated 590±91, p<0.001", "value": "112 ± 35", "unit": "pg/mL"}, {"measurement": "plasma TNF-α level in control mice", "setting": "[8]; t=0, injected three hours previously, not exposed to LPS/D-GalN, n=7", "value": "not detectable"}, {"measurement": "plasma IFN-γ level", "setting": "[9]; 1 hour after LPS/D-GalN, without MSO 0.84±0.25", "value": "0.19 ± 0.05", "unit": "pg/mL"}, {"measurement": "plasma IFN-γ level", "setting": "[9]; 4 hours after LPS/D-GalN, without MSO 41±11, p 0.01", "value": "5.0 ± 3.0", "unit": "pg/mL"}, {"measurement": "rescue of cells from apoptosis induced by TNF-α", "setting": "[10]", "value": "neither MSO nor BSO could rescue cells"}]}]}
